Measurements published in patent publication US8642012B2, “Methods of treatment using ammonia-scavenging drugs” (Hyperion Therapeutics, Inc., priority 2008, dated 2014).

Experiments:
[1] = Single dose PK in healthy adults: plasma PBA, PAA, PAGN; type: in vivo, human; details: healthy volunteers, single dose 3 g/m^2/day PBA mole equivalent
Description: To assess its pharmacokinetic (PK) and pharmacodynamic (PD) profile, HPN-100 was administered as a single dose to 24 healthy adults. Pharmacokinetic samples were taken pre-dose and at 15 and 30 minutes post-dose and 1, 1.5, 2, 3, 4, 6, 8, 12, 24, and 48 hours post-dose.
Plasma levels of PAA, PBA, and PAGN were monitored periodically for 12-24 hours by known methods.

[2] = Adult UCD patients switched from sodium PBA to equimolar HPN-100: plasma PK at steady state; type: in vivo, human
Excerpt: (§1) Subjects stayed on the 100% HPN-100 dose for one week and were then re-admitted to the study unit for repeated PK (Visit 11-1), ammonia and urine collections.

[3] = Adult UCD patients, sodium PBA vs HPN-100: urinary PAGN excretion; type: in vivo, human
Excerpt: as §1

venous ammonia = assay: Adult UCD patients, sodium PBA vs HPN-100: venous ammonia pharmacodynamics; type: in vivo, human
Excerpt: as §1

[4] = Adult UCD patients, sodium PBA vs HPN-100: safety and patient preference; type: in vivo, human; details: UCD patients (n=10)
Excerpt: as §1

[5] = PK/PD modeling (NONMEM VI) of plasma and urinary metabolite data from the clinical studies; set-up: species or system human
Description: Since hepatocytes and possibly enterocytes contain the enzymes necessary for conversion of PBA to PAA and conversion of PAA to PAGN and since glutamine is present in the splanchnic as well as the systemic circulation, it is likely that PBA can be converted to PAGN prior to reaching the systemic circulation (i.e. “pre-systemically”) and that this PBA is fully effective with respect to ammonia scavenging (FIG. 6); i.e. fully active. To verify this possibility, PK/PD modeling using NONMEM VI (Icon, Ellicot City, Md.) was carried out on plasma and urinary metabolite data (over 5000 data points) from the clinical studies described above involving healthy adults, subjects with cirrhosis and UCD subjects.

[6] = ADME study of radio labeled sodium PBA or HPN-100 in cynomolgous monkeys; type: in vivo; details: 600 mg/kg single dose
Excerpt: These monkeys were chosen because, like humans (and unlike most other species), they metabolize PAA to PAGN and thus provide a useful model for testing prodrugs of PAA.

[7] = Overall findings across the clinical studies (conversion to urinary PAGN, tolerability); type: in vivo, human; details: oral; typical/average across clinical studies
Excerpt: These are followed by a biological explanation for the findings.

[8] = healthy adults; single dose; urine collected to 24 hours
[9] = individual UCD patients; Brusilow 1991, Brusilow and Finkelstien 1993; cited from earlier work
[10] = plasma, UCD subjects, multiple dose, PBA mole equivalent
[11] = steady state, UCD patients N = 10, arithmetic mean
[12] = N 10 UCD subjects, seven days of dosing, steady state
[13] = Subject 1001, seven days of dosing, steady state
[14] = Subject 1002, seven days of dosing, steady state
[15] = Subject 1004, seven days of dosing, steady state
[16] = Subject 1006, seven days of dosing, steady state
[17] = Subject 2001, seven days of dosing, steady state
[18] = Subject 2003, seven days of dosing, steady state
[19] = Subject 3002, seven days of dosing, steady state
[20] = Subject 3004, seven days of dosing, steady state
[21] = Subject 5001, seven days of dosing, steady state
[22] = Subject 5002, seven days of dosing, steady state
[23] = UCD patients, equimolar rates (n=10)

## O=C([O-])CCCc1ccccc1.[Na+] [Sodium PBA, sodium phenylbutyrate]
[1]
  PBA AUC24: 542.6 µg·h/mL
  PBA Cmax: 221.0 µg/mL
  PBA Tmax: 54 min
  PBA T½: 42 min
[2]; UCD patients, equimolar dosages
  AUC (PBA): 739 (49) μg-hr/mL
[2]; [10]
  PBA AUC24: 739.0 µg·h/mL
  PBA Cmax: 141.0 µg/mL
  PBA Tmax: 126 min
[2]; [11]
  PAA in plasma Cmaxss: 53.0 µg/mL
  PAA in plasma Cminss: 3.56 µg/mL
  PAGN in plasma Cmaxss: 83.3 µg/mL
  PAGN in plasma Cminss: 16.8 µg/mL
  PBA in plasma AUC0-24: 739 µg·h/mL
  PBA in plasma Cmaxss: 141 µg/mL
  PBA in plasma Cminss: 0.588 µg/mL
[3]; 24 hour pattern
  Urine collection interval with highest PAGN output: 6 to 12 h
[3]; average
  Conversion into urinary PAGN: ~60%
[3]; equimolar rates (n=10)
  PAGN excretion: Comparable
[3]; urine
  Mean PAGN amount excreted, 0-6 hours: 2,452,838 μg
  Mean PAGN amount excreted, 0-12 hours: 4,859,121 μg
  Mean PAGN amount excreted, 12-24 hours: 4,645,447 μg
Venous ammonia; [12]
  Venous ammonia Cmaxss, Mean: 79.1 µmol/L
  Venous ammonia Cmaxss, Median: 83.6 µmol/L
  Venous ammonia TN-AUC, Mean: 38.4 µmol/L
  Venous ammonia TN-AUC, Median: 36.8 µmol/L
Venous ammonia; [13]
  Venous ammonia Cmaxss: 29.0 µmol/L
  Venous ammonia TN-AUC: 16.47 µmol/L
Venous ammonia; [14]
  Venous ammonia Cmaxss: 31.0 µmol/L
  Venous ammonia TN-AUC: 20.9 µmol/L
Venous ammonia; [15]
  Venous ammonia Cmaxss: 85.0 µmol/L
  Venous ammonia TN-AUC: 46.8 µmol/L
Venous ammonia; [16]
  Venous ammonia Cmaxss: 150 µmol/L
  Venous ammonia TN-AUC: 71.5 µmol/L
Venous ammonia; [17]
  Venous ammonia Cmaxss: 88.0 µmol/L
  Venous ammonia TN-AUC: 52.1 µmol/L
Venous ammonia; [18]
  Venous ammonia Cmaxss: 31.0 µmol/L
  Venous ammonia TN-AUC: 17.5 µmol/L
Venous ammonia; [19]
  Venous ammonia Cmaxss: 108 µmol/L
  Venous ammonia TN-AUC: 22.3 µmol/L
Venous ammonia; [20]
  Venous ammonia Cmaxss: 115 µmol/L
  Venous ammonia TN-AUC: 62.9 µmol/L
Venous ammonia; [21]
  Venous ammonia Cmaxss: 82.2 µmol/L
  Venous ammonia TN-AUC: 35.8 µmol/L
Venous ammonia; [22]
  Venous ammonia Cmaxss: 72.2 µmol/L
  Venous ammonia TN-AUC: 37.7 µmol/L
Venous ammonia; UCD patients
  Mean percentage of normal ammonia values: 58%
  Peak venous ammonia concentration: 79.1 µmol/L
  Venous ammonia mean TN-AUC: 38.4 µmol/L
Venous ammonia; UCD patients, equimolar dosages, plasma ammonia
  TN-AUC (NH3): 38.4 µM
Venous ammonia; [23]
  NH3: Total AUC: 38.4 ± 19.6
  NH3 exposure: DAY (hours 6-12): 37.1
  NH3 exposure: NIGHT (hours 12-24): 36.3
Venous ammonia; UCD patients, equimolar rates (n=10), in µmol/L
  NH3 Cmax: 79.1 ± 40.1
[4]
  Adverse effects, number of subjects reporting: 7
  Adverse effects, total number reported: 21
  Serious adverse effects: 2 (symptomatic
[4]; listed as PBA
  Serious adverse effects: two subjects
[5]
  Absorption rate constant: 1.34 h⁻¹
  Fraction of PBA converted pre-systemically (to PAA and PAGN): 1%
[6]; excreted
  Unchanged PBA as share of the administered dosage: 48%
[6]; urine
  PAGN as share of the administered radio labeled dose: 23%
[7]
  Conversion into urinary PAGN, overall efficiency on average: 60-75%
[8]
  Urinary excretion of PAGN: 4905 ± 1414 mg
[9]
  Fraction excreted in the urine as PAGN: 80-90%
